Reference: article PMC6272669, “Protein Tyrosine Phosphatase 1B Inhibitors from the Roots of Cudrania tricuspidata” (Molecules, 2015)

Legend:
[1] = target: T1, PTP1B (human, recombinant) (Homo sapiens, UniProt P18031); assay: PTP1B inhibitory activity assay (p-NPP hydrolysis); format: biochemical; details: 1 mM p-NPP substrate, pH 6.0, 37.5 °C, 30 min; mean ± SD of triplicate experiments; read-out: PTP1B Inhibitory Effects (IC50 Values)
T1 construct: purchased ATGen Co., Ltd. (Gyeonggi-do, Korea)
T1 sequence (P18031 1-435): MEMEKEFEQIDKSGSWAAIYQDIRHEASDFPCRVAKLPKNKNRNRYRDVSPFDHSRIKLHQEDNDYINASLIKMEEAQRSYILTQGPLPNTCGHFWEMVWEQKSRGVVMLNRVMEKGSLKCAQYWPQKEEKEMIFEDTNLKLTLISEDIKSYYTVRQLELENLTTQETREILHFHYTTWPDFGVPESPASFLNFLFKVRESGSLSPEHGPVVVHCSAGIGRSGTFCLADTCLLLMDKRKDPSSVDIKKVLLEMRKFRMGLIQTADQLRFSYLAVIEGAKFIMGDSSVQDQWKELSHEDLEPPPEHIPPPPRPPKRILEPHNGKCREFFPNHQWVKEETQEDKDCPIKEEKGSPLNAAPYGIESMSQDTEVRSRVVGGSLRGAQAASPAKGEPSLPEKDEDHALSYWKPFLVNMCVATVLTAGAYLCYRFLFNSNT
Protocol: On the basis of these findings, we evaluated the inhibitory effects of the 16 isolated compounds on PTP1B activity. PTP1B enzyme (human, recombinant) was purchased from ATGen Co., Ltd. (Gyeonggi-do, Korea), and its activity was measured using p-nitrophenyl phosphate (p-NPP). The reaction mixture consisted of 50 mM Bis-Tris (pH 6.0), 2.0 mM EDTA, 5.0 mM dithiothreitol (DTT), PTP1B (0.04 μg), and 1.0 mM p-NPP, with or without test compounds. After incubation at 37.5 °C for 30 min, the reaction was stopped via the addition of 10 N NaOH. The production of p-nitrophenol (p-NP) was evaluated by measuring the absorbance at 405 nm. The non-enzymatic hydrolysis of 1.0 mM p-NPP was corrected by measuring the increase in absorbance at 405 nm in the absence of PTP1B enzyme.
PTP1B (human, recombinant) was purchased from ATGen Co., Ltd. (Gyeonggi-do, Korea). The enzyme activity was measured in a reaction mixture containing 1 mM p-NPP in 50 mM Bis-Tris (pH 6.0), 2.0 mM EDTA, and 5.0 mM dithiothreitol (DTT). The reaction mixture was placed in a 37.5 °C for 30 min, followed by termination of the reaction with the addition of 10 N NaOH. The amount of p-NP produced was estimated by measuring the increase in absorbance at 405 nm. The non-enzymatic hydrolysis of 1.0 mM p-NPP was corrected by measuring the increase in absorbance at 405 nm obtained in the absence of PTP1B enzyme. Inhibition kinetics studies were performed in the presence or absence of compounds 1 and 13 with different concentrations of p-NPP. Data were fitted by nonlinear regression analysis according to a Michaelis-Menten kinetic model using GraphPad Prism 5.01.

[2] = target: T1, PTP1B (human, recombinant); assay: Enzyme kinetic study of PTP1B inhibition (Lineweaver-Burk plots); format: biochemical; details: Lineweaver-Burk plots: reduction in Vmax, no change in Km
Protocol: To elucidate the characteristics of PTP1B inhibition by the prenylated xanthones and flavonoids, compounds 1 and 13 were selected for an enzyme kinetic study. The kinetic studies were conducted using different concentrations of compounds 1, 13, and p-NPP. The initial rate was determined on the basis of the rate of increase in absorbance at 405 nm. The Michaelis–Menten constant (Km) and maximal velocity (Vmax) of PTP1B were determined by Lineweaver–Burk Plot analysis for competitive inhibition and the intercept on the vertical axis for noncompetitive inhibition. […]
Figure 2 Lineweaver-Burk plots for inhibition of PTP1B-catalyzed hydrolysis of p-NPP by compounds 1 (A) and 13 (B). Data are expressed as mean initial velocity for triplicate experiments (n = 3) at each substrate concentration.
PTP1B (human, recombinant) was purchased from ATGen Co., Ltd. (Gyeonggi-do, Korea). The enzyme activity was measured in a reaction mixture containing 1 mM p-NPP in 50 mM Bis-Tris (pH 6.0), 2.0 mM EDTA, and 5.0 mM dithiothreitol (DTT). […] The amount of p-NP produced was estimated by measuring the increase in absorbance at 405 nm. The non-enzymatic hydrolysis of 1.0 mM p-NPP was corrected by measuring the increase in absorbance at 405 nm obtained in the absence of PTP1B enzyme. […]

Structure (SMILES) | IC50 [1] [µM] | Mode of PTP1B inhibition [2]
C=CC(C)(C)c1c2c(c3oc4cc(O)c(O)cc4c(=O)c3c1O)C=CC(C)(C)O2 [Compound 1, cudratricusxanthone N] | 2 ± 0.4 | noncompetitive
C=CC(C)(C)c1c(OC)cc2oc3cc(O)c(O)cc3c(=O)c2c1O [Compound 2, 1,6,7-trihydroxy-2-(1,1-dimethyl-2-propenyl)-3-methoxyxanthone] | 3 ± 0.6 | 
C=CC(C)(C)c1c(O)cc(O)c2c(=O)c3cc(O)c(O)cc3oc12 [Compound 3, cudratricusxanthone L] | 3 ± 0.3 | 
C=CC(C)(C)c1c(O)cc(O)c2c(=O)c3c(CC=C(C)C)c(O)c(O)cc3oc12 [Compound 4, cudratricusxanthone A] | 4.3 ± 0.6 | 
C=CC(C)(C)c1c(O)cc2oc3c(CC=C(C)C)c(O)c(O)cc3c(=O)c2c1O [Compound 5, cudraxanthone L] | 4.6 ± 0.8 | 
C=CC(C)(C)c1c(O)c(CC=C(C)C)c2oc3cc(O)c(O)cc3c(=O)c2c1O [Compound 6, macluraxanthone B] | 3.8 ± 0.5 | 
C=CC(C)(C)c1c(OC)c(CC=C(C)C)c2oc3cc(O)c(O)cc3c(=O)c2c1O [Compound 7, cudracuspixanthone A] | 1.9 ± 0.4 | 

Continued, values first:

IC50 [1] [µM] | Mode of PTP1B inhibition [2] | Structure (SMILES)
2.8 ± 0.6 |  | CC(C)=CCc1c2c(c(O)c3c(=O)c4cc(O)c(O)cc4oc13)C(C)(C)C(C)O2 (stereo not drawn) [Compound 8]
3.5 ± 0.7 |  | CC(C)=CCc1c(O)c(O)cc2c(=O)c3c(O)c4c(cc3oc12)OC(C)C4(C)C (stereo not drawn) [Compound 9, cudraxanthone M]
5.7 ± 1.5 | noncompetitive | CC(C)=CCc1cc([C@@H]2CC(=O)c3c(cc(O)c(CC=C(C)C)c3O)O2)c(O)cc1O [Compound 13, cudraflavanone D]
12.3 ± 2.2 |  | CC(C)=CCc1c(O)cc2c(c1O)C(=O)C[C@@H](c1cc3c(cc1O)OC(C)(C)C=C3)O2 [Compound 14, euchrestaflavanone C]
9.4 ± 2.9 |  | CC(C)=CCc1c(O)cc2oc(-c3ccc(O)cc3O)c(CC=C(C)C)c(=O)c2c1O [Compound 15, cudraflavone C]
13.6 ± 3.3 |  | CC(C)=CCc1c(-c2ccc(O)cc2O)oc2c(CC=C(C)C)c(O)cc(O)c2c1=O [Compound 16, kuwanon C]
